Test results as given in patent publication US20250353864A1, “INDAZOLE CONTAINING MACROCYCLES AND THEIR USE” (BLOSSOMHILL THERAPEUTICS, INC., priority 2022, published 2025).

Experiments:
Assay type in all cases: biochemical
EGFR WT = EGFR WT (Homo sapiens (Human), UniProt P00533); assay: HotSpot radiometric kinase assay (Reaction Biology), EGFR WT; conditions: 10 μM ATP
How it was run: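 Compounds were preincubated ~20 min with kinase/substrate in pH 7.5 Hepes buffer (MgCl2, EGTA, Brij35, BSA, Na3VO4, DTT, 1% DMSO), then ATP plus 33P-ATP was added to 10 μM final. After 120 min at room temperature, reactions were spotted on P81 filters and washed; IC50 values came from curve fits.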

EGFR (D770_N771insNPG) = EGFR (D770_N771insNPG) (Homo sapiens (Human), UniProt P00533, INS770NPG); assay: HotSpot radiometric kinase assay, EGFR (D770_N771insNPG); conditions: 10 μM ATP, read-out: EGFR (Δ770_N771insNPG) IC50
How it was run: (§1)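 Radiometric filter-binding read-out: incorporated 33P was retained on P81 ion-exchange paper after washing away unbound phosphate. Reactions ran 120 min at room temperature with 10 μM final ATP, following ~20 min compound preincubation in Hepes pH 7.5 buffer containing 1% DMSO. IC50 from fitted curves.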

EGFR Δ746-750 mutant = EGFR Δ746-750 mutant (Homo sapiens (Human), UniProt P00533, DEL746-750); assay: HotSpot radiometric kinase assay, EGFR Δ746-750 mutant; conditions: 10 μM ATP
EGFR Δ746-750 mutant, sequence (P00533 other isoform, or with tags, fused parts or gaps del 1-668/del 746-750 limits assumed): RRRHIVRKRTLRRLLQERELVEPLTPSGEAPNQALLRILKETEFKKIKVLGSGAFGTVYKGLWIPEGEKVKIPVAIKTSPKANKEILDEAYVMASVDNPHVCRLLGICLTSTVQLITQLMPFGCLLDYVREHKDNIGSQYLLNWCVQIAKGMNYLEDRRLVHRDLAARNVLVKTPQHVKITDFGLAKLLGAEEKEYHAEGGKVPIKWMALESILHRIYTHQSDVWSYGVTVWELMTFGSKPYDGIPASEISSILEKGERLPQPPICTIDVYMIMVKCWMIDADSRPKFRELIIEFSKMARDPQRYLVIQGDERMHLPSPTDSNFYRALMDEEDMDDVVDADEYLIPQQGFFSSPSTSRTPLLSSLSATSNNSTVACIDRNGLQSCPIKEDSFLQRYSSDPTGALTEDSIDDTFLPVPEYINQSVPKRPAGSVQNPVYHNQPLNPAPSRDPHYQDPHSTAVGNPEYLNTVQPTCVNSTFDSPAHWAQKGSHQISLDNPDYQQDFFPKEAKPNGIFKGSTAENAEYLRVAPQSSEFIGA
How it was run: as §1

[1] = target: EGFR Δ746-750/C797S mutant (Homo sapiens (Human), UniProt P00533, C797S/DEL746-750); assay: HotSpot radiometric kinase assay, EGFR Δ746-750/C797S mutant; conditions: 10 μM ATP
EGFR Δ746-750/C797S mutant, sequence (P00533 other isoform, or with tags, fused parts or gaps C797S/del 1-668/del 746-750 limits assumed): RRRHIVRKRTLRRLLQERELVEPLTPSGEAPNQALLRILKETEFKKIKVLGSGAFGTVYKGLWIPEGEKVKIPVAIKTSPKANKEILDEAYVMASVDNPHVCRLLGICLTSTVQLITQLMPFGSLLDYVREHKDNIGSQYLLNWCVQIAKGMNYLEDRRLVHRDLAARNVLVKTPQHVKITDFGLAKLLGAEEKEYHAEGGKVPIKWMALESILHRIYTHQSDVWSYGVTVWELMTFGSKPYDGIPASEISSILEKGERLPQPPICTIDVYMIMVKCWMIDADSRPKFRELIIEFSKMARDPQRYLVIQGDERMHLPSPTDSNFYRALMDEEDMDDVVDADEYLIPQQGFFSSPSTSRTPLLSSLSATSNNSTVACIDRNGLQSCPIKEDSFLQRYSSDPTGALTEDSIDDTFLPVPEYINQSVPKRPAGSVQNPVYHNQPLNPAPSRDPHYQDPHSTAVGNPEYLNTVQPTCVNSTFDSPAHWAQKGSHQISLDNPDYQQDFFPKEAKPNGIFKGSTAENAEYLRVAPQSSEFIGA
How it was run: as §1

EGFR L858R mutant = EGFR L858R mutant (Homo sapiens (Human), UniProt P00533, L858R); assay: HotSpot radiometric kinase assay, EGFR L858R mutant; conditions: 10 μM ATP
EGFR L858R mutant, sequence (P00533 25-1210 L858R): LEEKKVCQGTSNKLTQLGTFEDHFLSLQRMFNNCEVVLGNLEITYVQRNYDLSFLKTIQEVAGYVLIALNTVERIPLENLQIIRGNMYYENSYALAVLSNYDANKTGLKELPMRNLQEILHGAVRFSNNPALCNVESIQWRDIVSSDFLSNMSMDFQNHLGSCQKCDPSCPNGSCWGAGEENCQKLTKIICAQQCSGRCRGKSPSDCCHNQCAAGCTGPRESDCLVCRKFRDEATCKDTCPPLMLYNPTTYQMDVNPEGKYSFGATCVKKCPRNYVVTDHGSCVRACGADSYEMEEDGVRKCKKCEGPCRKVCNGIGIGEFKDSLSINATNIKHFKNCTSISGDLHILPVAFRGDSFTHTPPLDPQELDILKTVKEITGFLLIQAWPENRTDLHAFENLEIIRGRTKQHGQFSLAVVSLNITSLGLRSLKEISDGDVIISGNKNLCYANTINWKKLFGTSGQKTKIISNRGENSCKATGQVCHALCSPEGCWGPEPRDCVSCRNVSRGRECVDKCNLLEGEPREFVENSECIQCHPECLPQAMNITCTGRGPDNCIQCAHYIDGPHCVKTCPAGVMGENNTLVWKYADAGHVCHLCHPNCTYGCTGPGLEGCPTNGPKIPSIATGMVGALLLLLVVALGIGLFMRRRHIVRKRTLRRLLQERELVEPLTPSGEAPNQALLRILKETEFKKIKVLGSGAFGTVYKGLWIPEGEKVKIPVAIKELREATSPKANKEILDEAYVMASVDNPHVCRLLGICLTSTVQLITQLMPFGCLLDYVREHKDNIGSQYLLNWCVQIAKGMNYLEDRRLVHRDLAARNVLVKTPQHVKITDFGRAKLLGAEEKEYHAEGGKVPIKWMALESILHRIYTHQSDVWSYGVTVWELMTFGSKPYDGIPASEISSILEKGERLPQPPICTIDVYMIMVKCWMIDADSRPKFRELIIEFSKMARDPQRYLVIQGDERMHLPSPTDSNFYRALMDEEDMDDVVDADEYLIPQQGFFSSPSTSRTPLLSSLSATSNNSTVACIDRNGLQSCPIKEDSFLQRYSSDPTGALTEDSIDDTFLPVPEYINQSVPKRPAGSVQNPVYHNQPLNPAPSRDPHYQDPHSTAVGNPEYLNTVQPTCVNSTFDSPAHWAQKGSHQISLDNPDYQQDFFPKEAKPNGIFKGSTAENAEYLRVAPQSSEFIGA
How it was run: as §1

EGFR L858R/T790M mutant = EGFR L858R/T790M mutant (Homo sapiens (Human), UniProt P00533, L858R/T790M); assay: HotSpot radiometric kinase assay, EGFR L858R/T790M mutant; conditions: 10 μM ATP
EGFR L858R/T790M mutant, sequence (P00533 25-1210 T790M/L858R): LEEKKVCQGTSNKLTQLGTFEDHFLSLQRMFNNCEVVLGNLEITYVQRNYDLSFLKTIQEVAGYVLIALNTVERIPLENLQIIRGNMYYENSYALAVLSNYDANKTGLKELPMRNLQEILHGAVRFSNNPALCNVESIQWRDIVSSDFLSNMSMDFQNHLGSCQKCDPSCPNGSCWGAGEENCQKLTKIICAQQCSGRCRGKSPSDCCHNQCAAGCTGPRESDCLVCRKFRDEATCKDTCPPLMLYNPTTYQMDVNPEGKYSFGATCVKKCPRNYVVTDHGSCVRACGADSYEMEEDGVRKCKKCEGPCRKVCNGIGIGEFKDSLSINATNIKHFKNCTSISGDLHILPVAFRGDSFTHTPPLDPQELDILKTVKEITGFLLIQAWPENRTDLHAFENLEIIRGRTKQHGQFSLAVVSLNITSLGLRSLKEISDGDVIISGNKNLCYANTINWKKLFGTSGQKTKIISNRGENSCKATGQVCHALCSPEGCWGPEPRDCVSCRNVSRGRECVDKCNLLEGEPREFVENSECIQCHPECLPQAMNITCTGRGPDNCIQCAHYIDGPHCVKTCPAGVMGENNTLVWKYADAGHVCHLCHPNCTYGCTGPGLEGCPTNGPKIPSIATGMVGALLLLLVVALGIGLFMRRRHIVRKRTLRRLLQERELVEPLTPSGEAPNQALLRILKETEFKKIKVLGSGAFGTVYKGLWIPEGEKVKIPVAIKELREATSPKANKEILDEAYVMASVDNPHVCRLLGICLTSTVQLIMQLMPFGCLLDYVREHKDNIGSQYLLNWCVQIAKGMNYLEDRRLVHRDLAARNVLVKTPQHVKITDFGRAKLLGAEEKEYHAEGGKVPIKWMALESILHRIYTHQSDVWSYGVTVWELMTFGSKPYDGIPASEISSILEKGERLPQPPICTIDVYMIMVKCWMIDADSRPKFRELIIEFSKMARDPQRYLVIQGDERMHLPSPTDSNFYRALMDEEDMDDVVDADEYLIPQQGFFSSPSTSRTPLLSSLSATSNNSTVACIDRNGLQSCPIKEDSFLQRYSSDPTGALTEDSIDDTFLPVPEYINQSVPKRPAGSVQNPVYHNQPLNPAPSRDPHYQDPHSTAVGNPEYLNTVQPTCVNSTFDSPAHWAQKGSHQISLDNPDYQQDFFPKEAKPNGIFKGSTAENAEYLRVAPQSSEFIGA
Procedure: Biochemical Assays for Inhibition of Wild-Type and Mutant EGFRs
Briefly, specific kinase/substrate pairs along with required cofactors were prepared in reaction buffer; 20 mM Hepes pH 7.5, 10 mM […], 1 mM EGTA, 0.02% Brij35, 0.02 mg/ml BSA, 0.1 mM Na3VO4, 2 mM DTT, 1% DMSO. Compounds were delivered into the reaction, followed […] later by addition of a mixture of ATP (Sigma, St. Louis MO) and ^33P ATP (Perkin Elmer, Waltham MA) to a final concentration of 10 μM. Reactions were carried out at room temperature for 120 min, followed by spotting of the reactions onto P81 ion exchange filter paper (Whatman Inc., Piscataway, NJ). Unbound phosphate was removed by extensive washing of filters in 0.75% phosphoric acid. […] IC50 values and curve fits were obtained using Prism (GraphPad Software).

[2] = target: EGFR L858R/T790M/C797S mutant (Homo sapiens (Human), UniProt P00533, C797S/L858R/T790M); assay: HotSpot radiometric kinase assay, EGFR L858R/T790M/C797S mutant; conditions: 10 μM ATP
How it was run: as §1

EGFR WT, sequence (P00533 25-1210): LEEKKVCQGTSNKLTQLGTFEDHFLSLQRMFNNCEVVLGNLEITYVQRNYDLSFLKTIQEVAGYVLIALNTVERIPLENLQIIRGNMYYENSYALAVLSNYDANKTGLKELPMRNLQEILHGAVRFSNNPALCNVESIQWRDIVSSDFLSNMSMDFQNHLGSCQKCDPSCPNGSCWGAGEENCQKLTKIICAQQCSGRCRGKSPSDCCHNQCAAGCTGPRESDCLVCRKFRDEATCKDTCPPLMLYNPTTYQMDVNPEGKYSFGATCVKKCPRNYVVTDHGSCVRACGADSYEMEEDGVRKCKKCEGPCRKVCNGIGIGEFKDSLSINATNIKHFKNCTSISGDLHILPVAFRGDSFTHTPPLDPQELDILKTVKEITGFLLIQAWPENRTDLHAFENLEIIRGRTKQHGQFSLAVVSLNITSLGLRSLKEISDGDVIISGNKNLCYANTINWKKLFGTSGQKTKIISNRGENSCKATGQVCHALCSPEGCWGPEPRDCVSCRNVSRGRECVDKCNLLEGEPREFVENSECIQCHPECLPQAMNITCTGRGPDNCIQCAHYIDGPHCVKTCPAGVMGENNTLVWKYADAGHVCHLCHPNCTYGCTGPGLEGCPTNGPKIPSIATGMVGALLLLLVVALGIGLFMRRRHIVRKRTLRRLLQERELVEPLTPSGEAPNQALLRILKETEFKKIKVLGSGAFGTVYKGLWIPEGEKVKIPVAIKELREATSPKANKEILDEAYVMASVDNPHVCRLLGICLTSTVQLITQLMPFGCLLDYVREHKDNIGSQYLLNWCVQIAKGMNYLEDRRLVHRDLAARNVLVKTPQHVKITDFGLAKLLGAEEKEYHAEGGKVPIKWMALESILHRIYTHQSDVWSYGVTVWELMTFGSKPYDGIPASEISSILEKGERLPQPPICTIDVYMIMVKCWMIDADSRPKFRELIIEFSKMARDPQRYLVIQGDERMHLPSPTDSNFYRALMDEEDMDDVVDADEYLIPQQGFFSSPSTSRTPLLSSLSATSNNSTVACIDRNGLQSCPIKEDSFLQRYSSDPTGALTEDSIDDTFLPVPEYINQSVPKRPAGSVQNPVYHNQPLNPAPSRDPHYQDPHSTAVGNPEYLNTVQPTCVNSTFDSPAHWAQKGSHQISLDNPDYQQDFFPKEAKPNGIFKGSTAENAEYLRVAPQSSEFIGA

IC50 (EGFR WT) [nM] | IC50 (EGFR (D770_N771insNPG)) [nM] | IC50 (EGFR Δ746-750 mutant) [nM] | IC50 [1] [nM] | IC50 (EGFR L858R mutant) [nM] | IC50 (EGFR L858R/T790M mutant) [nM] | IC50 [2] [nM] | Compound
69.2 | 138 | 49.2 | 16.7 | 11.4 | 0.86 | 5.02 | Cc1c2c(nn1CCN1CCOCC1)CN(C)C[C@H](C)Oc1c(cnn1C)-c1ccc3[nH]nc(c3c1)/C=C/2 [Example 93, (10S,17E)-8,10,12,16-tetramethyl-15-[2-(morpholin-4-yl)ethyl]-2,10,11,12,13,15-hexahydro-8H-3,5-ethenotripyrazolo[3,4-f:3′,4′-j:4″,3″- n][1,4]oxazacyclopentadecine]
290 | 250 | 198 | 91 | 87.7 | 10.4 | 19.2 | Cc1nn(CCN2CCCC2)c2c1/C=C/c1n[nH]c3ccc(cc13)-c1cnn(C)c1C(C)OCCO2 (stereo not drawn) [Example 100, (17E)-8,9,16-trimethyl-14-[2-(pyrrolidin-1-yl)ethyl]-2,8,9,11,12,14-hexahydro-3,5-etheno[1,4]dioxacyclopentadecino[11,10-c:15,14-c′:6,7-c″]tripyrazole]
62.4 | 94.5 | 48.1 | 44.7 | 25.4 | 4.1 | 13.1 | Cc1c2c(nn1[C@H]1C[C@@H](N(C)CCN(C)C)C1)OCCCOc1c(cnn1C)-c1ccc3[nH]nc(c3c1)/C=C/2 [Example 102, N^1—{(1s,3s)-3-[(17E)-8,16-dimethyl-2,8,11,12-tetrahydro-10H,15H-3,5-etheno[1,5]dioxacyclopentadecino[10,11-c:15,14-c′:6,7-c′]tripyrazol-15-yl]cyclobutyl}-N^1,N—,N^2-trimethylethane-1,2-diamine]
107 | 111 | 57.6 | 68.5 | 34.8 | 2.49 | 10.8 | Cc1nn(C)c2c1/C=C/c1n[nH]c3ccc(cc13)-c1cnn(C)c1CN(C)[C@@H](C)CO2 [Example 106, (11S,17E)-8,10,11,14,16-pentamethyl-2,9,10,11,12,14-hexahydro-8H-3,5-ethenotripyrazolo[3,4-f:4′,3′-j:4″,3″-n][1,4]oxazacyclopentadecine]
101 | 103 | 30.9 | 49.2 | 26.2 | 3.86 | 11.9 | Cc1nn([C@H]2C[C@@H](NCCN(C)C)C2)c2c1/C=C/c1n[nH]c3ccc(cc13)-c1cnn(C)c1OCCCO2 [Example 108, N^2-{(1s,3s)-3-[(17E)-8,16-dimethyl-2,8,11,12-tetrahydro-10H,14H-3,5-etheno[1,5]dioxacyclopentadecino[10,11-c:15,14-c′:6,7-c″]tripyrazol-14-yl]cyclobutyl}-N^1,N^1-dimethylethane-1,2-diamine]
150 | 112 | 14.4 | 28.5 | 30.4 | 4.99 | 8.54 | CCc1nn(C)c2c1/C=C/c1n[nH]c3ccc(cc13)-c1cnn(C)c1CN(C)CCO2 [Example 110, (17E)-16-ethyl-8,10,14-trimethyl-2,9,10,11,12,14-hexahydro-8H-3,5-ethenotripyrazolo[3,4-f:4′,3′-j:4″,3″- n][1,4]oxazacyclopentadecine]
488 | 727 | 69.9 | 67.4 | 96.8 | 8.66 | 9.91 | C[C@H]1CN(C)Cc2cnn(C)c2/C=C/c2n[nH]c3ccc(cc23)-c2cnn(C)c2O1 [Example 113, (10S,17E)-8,10,12,16-tetramethyl-2,10,11,12,13,16-hexahydro-8H-3,5-ethenotripyrazolo[4,3-f:3′,4′-j:4″,3″-n][1,4]oxazacyclopentadecine]
147 | 32.3 | 12.9 | 60.1 | 37.3 | 1.6 | 14 | COC(C)(C)c1ccc2c(c1)O[C@@H]1CCN(CCOc3c(cnn3C)-c3ccc4[nH]nc(c4c3)/C=C/2)C1=O [Example 115, (10R,16E)-13-(2-methoxypropan-2-yl)-3-methyl-3,5,6,9,10,19-hexahydro-8H-20,22-etheno-7,10-methanodipyrazolo[3,4-i:4′,3′-m][1,8,5]benzodioxazacyclooctadecin-25-one]
70.1 | 53.5 | 6.91 | 8.36 | 20 | 2.2 | 6.18 | Cc1c2c(nn1C1CCN(C)C1)OCCN(C)Cc1c(cnn1C)-c1ccc3[nH]nc(c3c1)/C=C/2 (stereo not drawn) [Example 117, (17E)-8,10,16-trimethyl-14-(1-methylpyrrolidin-3-yl)-2,9,10,11,12,14-hexahydro-8H-3,5-ethenotripyrazolo[3,4-f:4′,3′-j:4″,3″-n][1,4]oxazacyclopentadecine]

Second part, the compound before the results:

Compound | IC50 (EGFR WT) [nM] | IC50 (EGFR (D770_N771insNPG)) [nM] | IC50 (EGFR Δ746-750 mutant) [nM] | IC50 [1] [nM] | IC50 (EGFR L858R mutant) [nM] | IC50 (EGFR L858R/T790M mutant) [nM] | IC50 [2] [nM]
CN(C)Cc1ccc2c(c1)O[C@@H]1CCN(CCOc3c(cnn3C)-c3ccc4[nH]nc(c4c3)/C=C/2)C1=O [Example 94, (10R,16E)-13-[(dimethylamino)methyl]-3-methyl-3,5,6,9,10,19-hexahydro-8H-20,22-etheno-7,10-methanodipyrazolo[3,4-i:4′,3′-m][1,8,5]benzodioxazacyclooctadecin-25-one] | 44.1 | 17.2 | 17.6 | 14.1 | 9.99 | 0.82 | 5.75
Cc1c2c(nn1CCC(C)O)CN(C)C[C@H](C)Oc1c(cnn1C)-c1ccc3[nH]nc(c3c1)/C=C/2 (stereo partly drawn) [Example 95, 4-[(10S,17E)-8,10,12,16-tetramethyl-2,8,10,11,12,13-hexahydro-15H-3,5-ethenotripyrazolo[3,4-f:3′,4′-j:4″,3″-n][1,4]oxazacyclopentadecin-15-yl]butan-2-ol] | 167 | 524 | 121 | 23 | 30.1 | 1.95 | 4.93
Cc1nn([C@H]2C[C@@H](N(C)CCN(C)C)C2)c2c1/C=C/c1n[nH]c3ccc(cc13)-c1cnn(C)c1OCCCO2 [Example 103, N^1-{(1s,3s)-3-[(17E)-8,16-dimethyl-2,8,11,12-tetrahydro-10H,14H-3,5-etheno[1,5]dioxacyclopentadecino[10,11-c:15,14-c′:6,7-c″]tripyrazol-14-yl]cyclobutyl}-N^1,N^2,N^2-trimethylethane-1,2-diamine] | 358 | 344 | 105 | 171 | 103 | 11.5 | 40.4
Cc1c2c(nn1[C@H]1C[C@@H](NCCN(C)C)C1)OCCCOc1c(cnn1C)-c1ccc3[nH]nc(c3c1)/C=C/2 [Example 107, N^2-{(1s,3s)-3-[(17E)-8,16-dimethyl-2,8,11,12-tetrahydro-10H,15H-3,5-etheno[1,5]dioxacyclopentadecino[10,11-c:15,14-c′:6,7-c″]tripyrazol-15-yl]cyclobutyl}-N^1,N^1-dimethylethane-1,2-diamine] | 41.9 | 66.5 | 34.1 | 42.2 | 13.6 | 2.28 | 11.3
CCN1CCOc2c(c(C)nn2C)/C=C/c2n[nH]c3ccc(cc23)-c2cnn(C)c2C1 [Example 111, (17E)-10-ethyl-8,14,16-trimethyl-2,9,10,11,12,14-hexahydro-8H-3,5-ethenotripyrazolo[3,4-f:4′,3′-j:4″,3″-n][1,4]oxazacyclopentadecine] | 63.3 | 16.8 | 3.29 | 9.18 | 8.04 | 0.39 | 1.91
Cc1nn(C2CCN(C)C2)c2c1/C=C/c1n[nH]c3ccc(cc13)-c1cnn(C)c1CN(C)CCO2 (stereo not drawn) [Example 118, (17E)-8,10,16-trimethyl-14-(1-methylpyrrolidin-3-yl)-2,9,10,11,12,14-hexahydro-8H-3,5-ethenotripyrazolo[3,4-f:4′,3′-j:4″,3″-n][1,4]oxazacyclopentadecine] | 130 | 65.7 | 21.1 | 31.7 | 34.4 | 4.65 | 8.42
